Reference: patent US10988456B2, “O-aminoheteroaryl alkynyl-containing compound, preparation method therefor, and use thereof” (SHANGHAI INSTITUTE OF MATERIA MEDICA, CHINESE ACADEMY OF …, priority 2017, dated 2021)
Entries after “also recorded” stand apart in the source; their conditions may differ. Blank lines part the entries; values can stand above or below the compound they belong to.

Experiments:
[1] = molecular target: RET (Homo sapiens, UniProt P07949); test: Inhibition of receptor tyrosine kinase activity at molecular level (ELISA, Poly(Glu,Tyr)4:1 substrate phosphorylation); assay type: biochemical; conditions: 10 nM compound; average of two independent experiments
Chain of RET (P07949 29-1114): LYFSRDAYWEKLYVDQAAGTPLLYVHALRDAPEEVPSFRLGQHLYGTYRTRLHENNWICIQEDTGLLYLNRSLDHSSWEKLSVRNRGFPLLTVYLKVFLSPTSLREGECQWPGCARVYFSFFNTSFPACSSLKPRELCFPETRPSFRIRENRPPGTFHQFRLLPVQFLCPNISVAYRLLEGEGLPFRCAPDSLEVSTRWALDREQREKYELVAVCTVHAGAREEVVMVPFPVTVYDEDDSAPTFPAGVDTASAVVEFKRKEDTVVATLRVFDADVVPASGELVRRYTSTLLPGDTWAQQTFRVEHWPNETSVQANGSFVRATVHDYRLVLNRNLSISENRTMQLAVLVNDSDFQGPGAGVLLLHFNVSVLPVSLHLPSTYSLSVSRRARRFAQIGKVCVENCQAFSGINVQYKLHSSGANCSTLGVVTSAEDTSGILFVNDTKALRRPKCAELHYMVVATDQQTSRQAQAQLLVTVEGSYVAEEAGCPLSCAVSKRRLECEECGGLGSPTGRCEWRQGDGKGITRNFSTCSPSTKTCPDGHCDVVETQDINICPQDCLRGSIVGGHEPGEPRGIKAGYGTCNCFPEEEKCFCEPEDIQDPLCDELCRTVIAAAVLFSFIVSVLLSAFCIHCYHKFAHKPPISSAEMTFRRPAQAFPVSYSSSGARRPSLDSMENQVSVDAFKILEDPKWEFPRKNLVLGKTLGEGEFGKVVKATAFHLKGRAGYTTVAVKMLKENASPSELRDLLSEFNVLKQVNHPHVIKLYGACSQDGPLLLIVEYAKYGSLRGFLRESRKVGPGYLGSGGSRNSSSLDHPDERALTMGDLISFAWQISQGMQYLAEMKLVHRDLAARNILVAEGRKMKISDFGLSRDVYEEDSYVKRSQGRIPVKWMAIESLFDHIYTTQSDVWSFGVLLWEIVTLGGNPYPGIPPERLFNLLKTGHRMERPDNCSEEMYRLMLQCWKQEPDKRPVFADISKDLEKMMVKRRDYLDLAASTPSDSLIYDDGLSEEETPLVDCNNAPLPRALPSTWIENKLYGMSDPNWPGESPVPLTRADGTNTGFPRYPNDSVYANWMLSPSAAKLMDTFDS
Experimental: (§1) Enzyme reaction substrate Poly(Glu, Tyr)4:1 was diluted with potassium-free PBS (10 mM sodium phosphate buffer, 150 mM NaCl, pH 7.2-7.4) to 20 μg/mL. […] The reaction was conducted under 37° C. for 12-16 hours. After the liquid was removed from the wells, the plate was washed three times with 200 μL/well of T-PBS (PBS containing 0.1% Tween-20), each for 5 minutes. The enzyme plate was dried in 37° C. dryer for 1-2 hours.
(§2) 50 μL ATP solution diluted with buffer (50 mM HEPES pH 7.4, 50 mM MgCl2, 0.5 mM MnCl2, 0.2 mM Na3VO4, 1 mM DTT) to a final concentration of 5 μM was added into each well. The compound was diluted with DMSO to a suitable concentration (1 μL/well) or the well contained the corresponding concentration of DMSO (negative control well) Then various kinase recombinant proteins diluted with 49 μL of reaction buffer was added to initiate the reaction. Each experiment required duplicate enzyme-free control well. The reaction was carried out for 1 hour on a 37° C. Shaker (100 rpm). The plate was washed three times with T-PBS. A dilution of the primary antibody PY99 was added (100 μL/well), and the reaction was conducted in a shaker at 37° C. for 0.5 hr. The plate was washed three times with T-PBS. A dilution of the horseradish peroxidase-labeled goat anti-mouse IgG secondary antibody was added (100 μL/well), and the reaction was conducted in a shaker at 37° C. for 0.5 hour. Plate was washed with T-PBS for three times. 2 mg/mL OPD coloration solution (diluted with 0.1 M citric acid-sodium citrate buffer containing 0.03% H2O2 (pH=5.4)) was added (100 μL/well), reacted for 1-10 minutes at 25° C. in dark. The reaction was quenched with 2M H2SO4 (50 μL/well), and read at 490 nm using a tunable microplate reader SPECTRA MAX 190.
(§3) The inhibition ratio of the sample was determined by the following formula: […]
(§4) The IC50 values were obtained via four-parameter regression analysis using the software supplied with the microplate reader.

[2] = molecular target: KDR (Homo sapiens, UniProt P35968); test: as above; assay type: biochemical; conditions: 10 nM compound; average of two independent experiments
Chain of KDR (P35968 20-1356): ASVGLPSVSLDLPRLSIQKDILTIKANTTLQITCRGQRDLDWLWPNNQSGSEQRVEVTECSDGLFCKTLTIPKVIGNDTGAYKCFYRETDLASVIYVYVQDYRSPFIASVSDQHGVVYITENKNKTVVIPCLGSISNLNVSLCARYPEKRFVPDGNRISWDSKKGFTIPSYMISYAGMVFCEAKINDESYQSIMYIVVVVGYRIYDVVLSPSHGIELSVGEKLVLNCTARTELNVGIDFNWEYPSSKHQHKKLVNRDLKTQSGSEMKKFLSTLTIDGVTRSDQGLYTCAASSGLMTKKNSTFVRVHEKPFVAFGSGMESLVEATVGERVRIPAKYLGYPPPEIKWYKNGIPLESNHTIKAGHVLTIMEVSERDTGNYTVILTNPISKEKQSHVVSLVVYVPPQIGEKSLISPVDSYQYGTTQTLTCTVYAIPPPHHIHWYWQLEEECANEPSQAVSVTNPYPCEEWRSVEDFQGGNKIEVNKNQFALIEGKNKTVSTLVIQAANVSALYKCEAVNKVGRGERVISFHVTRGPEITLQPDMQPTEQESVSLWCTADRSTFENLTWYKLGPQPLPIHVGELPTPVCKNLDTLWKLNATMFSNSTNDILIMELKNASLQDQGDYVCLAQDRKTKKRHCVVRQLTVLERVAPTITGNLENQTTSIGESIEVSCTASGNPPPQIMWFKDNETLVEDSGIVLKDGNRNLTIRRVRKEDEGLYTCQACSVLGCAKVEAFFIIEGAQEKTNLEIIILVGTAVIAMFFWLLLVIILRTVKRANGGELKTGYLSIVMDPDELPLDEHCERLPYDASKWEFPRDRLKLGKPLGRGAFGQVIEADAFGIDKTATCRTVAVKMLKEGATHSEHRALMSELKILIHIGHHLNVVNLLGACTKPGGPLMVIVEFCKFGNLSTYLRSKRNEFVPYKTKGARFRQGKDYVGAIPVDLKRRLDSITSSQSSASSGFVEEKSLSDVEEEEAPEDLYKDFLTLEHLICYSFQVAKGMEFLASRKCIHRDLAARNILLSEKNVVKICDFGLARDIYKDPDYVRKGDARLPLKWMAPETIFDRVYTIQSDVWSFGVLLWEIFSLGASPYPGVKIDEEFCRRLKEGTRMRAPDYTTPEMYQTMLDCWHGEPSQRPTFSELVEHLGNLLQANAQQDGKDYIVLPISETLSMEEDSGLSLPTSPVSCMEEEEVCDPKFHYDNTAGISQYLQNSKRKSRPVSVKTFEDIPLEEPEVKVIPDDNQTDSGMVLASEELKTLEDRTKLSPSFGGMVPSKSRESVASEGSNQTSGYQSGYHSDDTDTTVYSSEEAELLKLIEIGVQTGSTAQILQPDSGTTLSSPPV
Experimental: as §1, §2, §3, §4

[3] = molecular target: FGFR1 (Homo sapiens, UniProt P11362); test: as above; assay type: biochemical; conditions: 10 nM compound; average of two independent experiments
Chain of FGFR1 (P11362 22-822): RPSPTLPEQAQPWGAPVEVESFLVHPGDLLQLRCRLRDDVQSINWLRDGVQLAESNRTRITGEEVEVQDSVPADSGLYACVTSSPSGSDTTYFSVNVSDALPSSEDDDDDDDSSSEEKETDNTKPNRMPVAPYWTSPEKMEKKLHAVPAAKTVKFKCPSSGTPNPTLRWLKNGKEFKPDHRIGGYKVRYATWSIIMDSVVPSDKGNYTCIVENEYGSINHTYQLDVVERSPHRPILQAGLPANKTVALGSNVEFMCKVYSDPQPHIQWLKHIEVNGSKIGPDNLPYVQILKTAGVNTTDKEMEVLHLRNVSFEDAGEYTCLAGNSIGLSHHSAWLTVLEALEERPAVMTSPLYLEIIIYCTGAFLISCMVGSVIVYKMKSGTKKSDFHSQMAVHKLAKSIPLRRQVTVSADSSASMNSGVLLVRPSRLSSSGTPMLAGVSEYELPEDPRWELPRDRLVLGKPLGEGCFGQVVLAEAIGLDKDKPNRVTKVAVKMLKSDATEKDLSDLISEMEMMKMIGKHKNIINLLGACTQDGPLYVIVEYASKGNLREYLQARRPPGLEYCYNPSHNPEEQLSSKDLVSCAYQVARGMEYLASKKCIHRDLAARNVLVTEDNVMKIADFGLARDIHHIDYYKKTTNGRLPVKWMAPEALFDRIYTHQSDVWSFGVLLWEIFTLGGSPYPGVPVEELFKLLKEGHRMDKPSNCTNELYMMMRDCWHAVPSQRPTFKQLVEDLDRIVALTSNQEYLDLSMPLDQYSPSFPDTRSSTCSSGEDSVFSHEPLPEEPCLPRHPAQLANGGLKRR
Experimental: as §1, §2, §3, §4

[4] = system: human gastric cancer SNU-16 xenografts; test: Growth of subcutaneous xenografts of human gastric cancer SNU-16 in nude mice (comparative compounds study); conditions: for Weight (g, mean ± SD): SNU-16 tumor-bearing mice
Experimental: The tumor tissue in the vigorous growth period was cut into 1.5 mm^3, and inoculated subcutaneously in the right axilla of nude mice under aseptic conditions. The diameter of the xenograft in nude mice was measured with a vernier caliper. The animals were randomly divided into groups when the average tumor volume was grown to about 190 mm^3. […] The diameter of the xenograft was measured twice a week during the entire experiment, and the body weight of the mice was weighed. The tumor volume (TV) was calculated as: TV=½×a×b^2, where a and b represented length and width, respectively. The relative tumor volume (RTV) was calculated based on the measured results, and the formula was: RTV=Vt/V0, wherein V0 represented the tumor volume obtained when the mice was divided and administered (i.e., d0), and Vt represented the tumor volume at each measurement. The anti-tumor activity evaluation index was the relative tumor proliferation rate T/C (%), and the calculation formula was as follows: T/C (%)=(TRTV/CRTV)×100%, wherein TRTV was TRV in treatment group; and CRTV was RTV in negative control group.

Compound: CN1CCN(Cc2ccc(NC(=O)c3ccc(Cl)c(C#Cc4cc(C#N)cnc4N)c3)cc2C(F)(F)F)CC1 [Example 21]
10 nM inhibition ratio RET [1]: 58.1
10 nM inhibition ratio KDR [2]: 32.0
10 nM inhibition ratio FGFR1 [3]: 44.3

Compound: CN1CCN(Cc2ccc(NC(=O)c3ccc(F)c(C#Cc4cccnc4N)c3)cc2C(F)(F)F)CC1 [Example 2]
10 nM inhibition ratio RET [1]: 69.2
10 nM inhibition ratio KDR [2]: 44.3
10 nM inhibition ratio FGFR1 [3]: 73.0

Compound: Cc1ccc(C#Cc2cccnc2N)cc1C(=O)Nc1ccc(CN2CCN(C)CC2)c(C(F)(F)F)c1 [Example 14]
10 nM inhibition ratio RET [1]: 57.6
10 nM inhibition ratio KDR [2]: 20.3
10 nM inhibition ratio FGFR1 [3]: 46.1

Compound: COc1cc(C#Cc2cccnc2N)cc(C(=O)Nc2ccc(CN3CCN(C)CC3)c(C(F)(F)F)c2)c1 [Example 13]
10 nM inhibition ratio RET [1]: 64.3
10 nM inhibition ratio KDR [2]: 15.1
10 nM inhibition ratio FGFR1 [3]: 70.2

Compound: CN1CCN(Cc2ccc(NC(=O)c3ccc(Cl)c(C#Cc4cncc(N5CCOCC5)c4)c3)cc2C(F)(F)F)CC1 [HuFGFR1-113]
animal deaths ([4]; SNU-16, 20 mg/kg group): one mouse died on day 20
Relative tumor volume RTV (mean ± SD) ([4]; SNU-16, 20 mg/kg orally once a day, d0): 1.00 ± 0.00
Relative tumor volume RTV (mean ± SD) ([4]; SNU-16, 20 mg/kg orally once a day, d3): 1.12 ± 0.03
Relative tumor volume RTV (mean ± SD) ([4]; SNU-16, 20 mg/kg orally once a day, d7): 0.64 ± 0.23
Relative tumor volume RTV (mean ± SD) ([4]; SNU-16, 20 mg/kg orally once a day, d10): 0.54 ± 0.22
Relative tumor volume RTV (mean ± SD) ([4]; SNU-16, 20 mg/kg orally once a day, d14): 0.92 ± 0.17
Relative tumor volume RTV (mean ± SD) ([4]; SNU-16, 20 mg/kg orally once a day, d17): 1.18 ± 0.42
Relative tumor volume RTV (mean ± SD) ([4]; SNU-16, 20 mg/kg orally once a day, d21): 1.35 ± 0.15
relative tumor proliferation rate T/C ([4]; SNU-16, 20 mg/kg orally once a day, day 21): 23.30%
animal deaths ([4]; SNU-16, 100 mg/kg group): One mouse died on the third day; also recorded: Two mice died on the fifth day
toxicity / condition of the mice (in words) ([4]; SNU-16, 100 mg/kg group): significant toxicity
Relative tumor volume RTV (mean ± SD) ([4]; SNU-16, 100 mg/kg orally once a day (administration interrupted), d0): 1.00 ± 0.00
Relative tumor volume RTV (mean ± SD) ([4]; SNU-16, 100 mg/kg orally once a day (administration interrupted), d3): 1.32 ± 0.40
Relative tumor volume RTV (mean ± SD) ([4]; SNU-16, 100 mg/kg orally once a day (administration interrupted), d7): 0.58 ± 0.02
Relative tumor volume RTV (mean ± SD) ([4]; SNU-16, 100 mg/kg orally once a day (administration interrupted), d10): 0.60 ± 0.02
Relative tumor volume RTV (mean ± SD) ([4]; SNU-16, 100 mg/kg orally once a day (administration interrupted), d14): 0.58 ± 0.35
Relative tumor volume RTV (mean ± SD) ([4]; SNU-16, 100 mg/kg orally once a day (administration interrupted), d17): 1.16 ± 0.86
Relative tumor volume RTV (mean ± SD) ([4]; SNU-16, 100 mg/kg orally once a day (administration interrupted), d21): 1.52 ± /
weight of the tumor-bearing mice (in words) ([4]; SNU-16, HuFGFR1-113 at 20 mg/kg, HuFGFR1-117 dose not stated): decreased significantly
Weight (g, mean ± SD) ([4]; 20 mg/kg orally once a day, d0): 23.2 ± 1.8 g
Weight (g, mean ± SD) ([4]; 20 mg/kg orally once a day, d3): 24.0 ± 1.5 g
Weight (g, mean ± SD) ([4]; 20 mg/kg orally once a day, d7): 22.4 ± 1.8 g
Weight (g, mean ± SD) ([4]; 20 mg/kg orally once a day, d10): 20.2 ± 1.9 g
Weight (g, mean ± SD) ([4]; 20 mg/kg orally once a day, d14): 19.7 ± 2.9 g
Weight (g, mean ± SD) ([4]; 20 mg/kg orally once a day, d17): 20.1 ± 3.7 g
Weight (g, mean ± SD) ([4]; 20 mg/kg orally once a day, d21): 20.3 ± 1.6 g
Weight (g, mean ± SD) ([4]; 100 mg/kg orally once a day (administration interrupted), d0): 23.4 ± 2.7 g
Weight (g, mean ± SD) ([4]; 100 mg/kg orally once a day (administration interrupted), d3): 23.1 ± 2.0 g
Weight (g, mean ± SD) ([4]; 100 mg/kg orally once a day (administration interrupted), d7): 20.7 ± 0.1 g
Weight (g, mean ± SD) ([4]; 100 mg/kg orally once a day (administration interrupted), d10): 22.1 ± 0.4 g
Weight (g, mean ± SD) ([4]; 100 mg/kg orally once a day (administration interrupted), d14): 25.4 ± 1.6 g
Weight (g, mean ± SD) ([4]; 100 mg/kg orally once a day (administration interrupted), d17): 25.5 ± 3.0 g
Weight (g, mean ± SD) ([4]; 100 mg/kg orally once a day (administration interrupted), d21): 21.2 ± / g

Continued, values first:

10 nM inhibition ratio RET [1]: 79.3
10 nM inhibition ratio KDR [2]: 28.7
10 nM inhibition ratio FGFR1 [3]: 68.5
Compound: CNCCOc1cnc(N)c(C#Cc2cc(C(=O)Nc3ccc(CN4CCN(C)CC4)c(C(F)(F)F)c3)ccc2Cl)c1 [Example 28]

10 nM inhibition ratio RET [1]: 70.8
10 nM inhibition ratio KDR [2]: 37.2
10 nM inhibition ratio FGFR1 [3]: 66.3
Compound: CN1CCN(Cc2ccc(NC(=O)c3ccc(Cl)c(C#Cc4cc(COC(F)(F)F)cnc4N)c3)cc2C(F)(F)F)CC1 [Example 32]

10 nM inhibition ratio RET [1]: 95.1
10 nM inhibition ratio KDR [2]: 43.1
10 nM inhibition ratio FGFR1 [3]: 48.5
Compound: CN1CCN(Cc2ccc(NC(=O)c3ccc(Cl)c(C#Cc4nccnc4N)c3)cc2C(F)(F)F)CC1 [Example 46]

10 nM inhibition ratio RET [1]: 78.0
10 nM inhibition ratio KDR [2]: 34.3
10 nM inhibition ratio FGFR1 [3]: 48.7
Compound: CN1CCN(Cc2ccc(NC(=O)c3cccc(C#Cc4nc(CO)cnc4N)c3)cc2C(F)(F)F)CC1 [Example 48]

10 nM inhibition ratio RET [1]: 77.3
10 nM inhibition ratio KDR [2]: 36.6
10 nM inhibition ratio FGFR1 [3]: 58.2
Compound: CN(C)CC=CC(=O)Nc1cnc(N)c(C#Cc2cc(C(=O)Nc3ccc(CN4CCN(C)CC4)c(C(F)(F)F)c3)ccc2Cl)c1 [Example 40]

10 nM inhibition ratio RET [1]: 66.3
10 nM inhibition ratio KDR [2]: 33.2
10 nM inhibition ratio FGFR1 [3]: 48.1
Compound: CC(=O)Nc1cnc(N)c(C#Cc2cccc(C(=O)Nc3ccc(CN4CCN(C)CC4)c(C(F)(F)F)c3)c2)c1 [Example 37]
